These are literature values, as cited in US20120101124A1, “1,2,4-OXADIAZOL DERIVATIVES, THEIR PHARMACEUTICAL COMPOSITIONS AND THEIR USE AS SPHINGOSINE 1-PHOSPHATE 1 RECEPTOR AGONISTS” (GLAXO GROUP LIMITED, priority 2009, published 2012).

The conditions of data set [1]: clinical studies.
A further data set has as its system circulating lymphocytes. The following applies: animals and man.

As for `CCCCCCCCc1ccc(CCC(N)(CO)CO)cc1` [FTY720], in data set [1], the bradycardia on treatment entry is “bradycardia in the first 24 hours of treatment”. The “effect on circulating lymphocytes” value in the data set with circulating lymphocytes was “reduce circulating lymphocytes in animals and man”.
